Experimental data: patent US20070010671A1, “Novel quinazoline derivatives and methods of treatment related to the use thereof” (priority 2003, published 2007)

target: MCH receptor (Homo sapiens, UniProt Q99705); assay: High throughput functional screening FLIPR/FDSS6000: inhibition of MCH-evoked intracellular Ca2+ changes; assay type: cell-based; details: class by percent of control at 10^-7 M or IC50
Procedure, shortened: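 In a kinetic calcium-flux format, compounds were tested at various concentrations against 50 nM MCH. Fluo4-loaded cells expressing a constitutively active, non-endogenous receptor were imaged at 488/530 nm for 290 s after agonist addition.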

Question: For `CC(C)CNC(=S)NC[C@H]1CC[C@@H](Nc2nc(N(C)C)c3ccccc3n2)CC1` [compound 602, N-[(cis-4-{[4-(dimethylamino)quinazolin-2-yl]amino}cyclohexyl)methyl]-N′-isobutylthiourea], which class is on record?
Answer: The class was 2 (Class 2: The value of percent of control at 10^−7 M was from 40% to 60% or the value of IC50 was from 50 nM to 200 nM.).

Question: With `COc1ccc(-c2ccccc2)cc1NC(=S)NC[C@H]1CC[C@@H](Nc2nc(N(C)C)c3ccccc3n2)CC1` [compound 603] as the compound, how does the class read?
Answer: Its class is 3 (Class 3: The value of percent of control at 10^−7 M was more than 60% or the value of IC50 was more than 200 nM.).

Question: For `CN(C)c1nc(N[C@H]2CC[C@@H](CNC(=S)NCc3ccc4c(c3)OCO4)CC2)nc2ccccc12` [compound 604], which class is on record?
Answer: The class was 2 (Class 2: The value of percent of control at 10^−7 M was from 40% to 60% or the value of IC50 was from 50 nM to 200 nM.).

Question: How did the class turn out when `Cc1cccc(NC(=S)NC[C@H]2CC[C@@H](Nc3nc(N(C)C)c4ccccc4n3)CC2)c1` [compound 605] was run?
Answer: Its class is 3 (Class 3: The value of percent of control at 10^−7 M was more than 60% or the value of IC50 was more than 200 nM.).

Question: With `CSc1ccc(NC(=S)NC[C@H]2CC[C@@H](Nc3nc(N(C)C)c4ccccc4n3)CC2)cc1` [compound 606] as the compound, how does the class read?
Answer: The class was 3 (Class 3: The value of percent of control at 10^−7 M was more than 60% or the value of IC50 was more than 200 nM.).

Question: `COc1ccc(NC(=S)NC[C@H]2CC[C@@H](Nc3nc(N(C)C)c4ccccc4n3)CC2)cc1` [compound 607] was tested. Which class did it give?
Answer: Its class is 3 (Class 3: The value of percent of control at 10^−7 M was more than 60% or the value of IC50 was more than 200 nM.).

Question: With `C=C(C)CNC(=S)NC[C@H]1CC[C@@H](Nc2nc(N(C)C)c3ccccc3n2)CC1` [compound 608] as the compound, how does the class read?
Answer: Its class is 3 (Class 3: The value of percent of control at 10^−7 M was more than 60% or the value of IC50 was more than 200 nM.).

Question: Which class does the source give for `COc1ccccc1NC(=S)NC[C@H]1CC[C@@H](Nc2nc(N(C)C)c3ccccc3n2)CC1` [compound 609] here?
Answer: Its class is 3 (Class 3: The value of percent of control at 10^−7 M was more than 60% or the value of IC50 was more than 200 nM.).

Question: Which class does the source give for `CNC(=S)NC[C@H]1CC[C@@H](Nc2nc(N(C)C)c3ccccc3n2)CC1` [compound 610] here?
Answer: The class was 3 (Class 3: The value of percent of control at 10^−7 M was more than 60% or the value of IC50 was more than 200 nM.).

Question: For `CN(C)c1nc(N[C@H]2CC[C@@H](CNC(=S)Nc3cccc4ccccc34)CC2)nc2ccccc12` [compound 611], which class is on record?
Answer: The class was 3 (Class 3: The value of percent of control at 10^−7 M was more than 60% or the value of IC50 was more than 200 nM.).

Question: For `CN(C)c1nc(N[C@H]2CC[C@@H](CNC(=S)Nc3cccc([N+](=O)[O-])c3)CC2)nc2ccccc12` [compound 612], which class is on record?
Answer: Its class is 3 (Class 3: The value of percent of control at 10^−7 M was more than 60% or the value of IC50 was more than 200 nM.).

Question: `CN(C)c1nc(N[C@H]2CC[C@@H](CNC(=S)Nc3ccc([N+](=O)[O-])cc3)CC2)nc2ccccc12` [compound 613, N-[(cis-4-{[4-(dimethylamino)quinazolin-2-yl]amino}cyclohexyl)methyl]-N′-(4-nitrophenyl)thiourea] was tested. Which class did it give?
Answer: The class was 2 (Class 2: The value of percent of control at 10^−7 M was from 40% to 60% or the value of IC50 was from 50 nM to 200 nM.).

Question: `CN(C)c1nc(N[C@H]2CC[C@@H](CNC(=S)NC(C)(C)CC(C)(C)C)CC2)nc2ccccc12` [compound 614] was tested. Which class did it give?
Answer: Its class is 3 (Class 3: The value of percent of control at 10^−7 M was more than 60% or the value of IC50 was more than 200 nM.).

Question: How did the class turn out when `CN(C)c1nc(N[C@H]2CC[C@@H](CNC(=S)Nc3ccccc3)CC2)nc2ccccc12` [compound 615] was run?
Answer: The class was 3 (Class 3: The value of percent of control at 10^−7 M was more than 60% or the value of IC50 was more than 200 nM.).

Question: `CN(C)c1nc(N[C@H]2CC[C@@H](CNC(=S)Nc3c(F)c(F)c(F)c(F)c3F)CC2)nc2ccccc12` [compound 616, N-[(cis-4-{[4-(dimethylamino)quinazolin-2-yl]amino}cyclohexyl)methyl]-N′-(pentafluorophenyl)thiourea] was tested. Which class did it give?
Answer: Its class is 2 (Class 2: The value of percent of control at 10^−7 M was from 40% to 60% or the value of IC50 was from 50 nM to 200 nM.).

Question: Which class does the source give for `CCCNC(=S)NC[C@H]1CC[C@@H](Nc2nc(N(C)C)c3ccccc3n2)CC1` [compound 617] here?
Answer: Its class is 3 (Class 3: The value of percent of control at 10^−7 M was more than 60% or the value of IC50 was more than 200 nM.).

Question: For `CN(C)c1nc(N[C@H]2CC[C@@H](CNC(=S)Nc3cccc(C(F)(F)F)c3)CC2)nc2ccccc12` [compound 618], which class is on record?
Answer: Its class is 3 (Class 3: The value of percent of control at 10^−7 M was more than 60% or the value of IC50 was more than 200 nM.).

Question: For `COc1cc(NC(=S)NC[C@H]2CC[C@@H](Nc3nc(N(C)C)c4ccccc4n3)CC2)cc(OC)c1OC` [compound 619], which class is on record?
Answer: Its class is 3 (Class 3: The value of percent of control at 10^−7 M was more than 60% or the value of IC50 was more than 200 nM.).

Question: With `Cc1ccc(NC(=S)NC[C@H]2CC[C@@H](Nc3nc(N(C)C)c4ccccc4n3)CC2)cc1` [compound 621] as the compound, how does the class read?
Answer: Its class is 3 (Class 3: The value of percent of control at 10^−7 M was more than 60% or the value of IC50 was more than 200 nM.).

Question: For `Cc1ccccc1NC(=S)NC[C@H]1CC[C@@H](Nc2nc(N(C)C)c3ccccc3n2)CC1` [compound 622], which class is on record?
Answer: Its class is 3 (Class 3: The value of percent of control at 10^−7 M was more than 60% or the value of IC50 was more than 200 nM.).

Question: With `CN(C)c1nc(N[C@H]2CC[C@@H](CNC(=S)NC(C)(C)C)CC2)nc2ccccc12` [compound 623] as the compound, how does the class read?
Answer: Its class is 3 (Class 3: The value of percent of control at 10^−7 M was more than 60% or the value of IC50 was more than 200 nM.).

Question: How did the class turn out when `CN(C)c1nc(N[C@H]2CC[C@@H](CNC(=S)Nc3ccccc3Br)CC2)nc2ccccc12` [compound 625] was run?
Answer: Its class is 3 (Class 3: The value of percent of control at 10^−7 M was more than 60% or the value of IC50 was more than 200 nM.).

Question: With `CN(C)c1nc(N[C@H]2CC[C@@H](CNC(=S)Nc3ccccc3Cl)CC2)nc2ccccc12` [compound 626] as the compound, how does the class read?
Answer: Its class is 3 (Class 3: The value of percent of control at 10^−7 M was more than 60% or the value of IC50 was more than 200 nM.).

Question: With `CN(C)c1nc(N[C@H]2CC[C@@H](CNC(=S)NCCc3ccccc3)CC2)nc2ccccc12` [compound 627] as the compound, how does the class read?
Answer: The class was 3 (Class 3: The value of percent of control at 10^−7 M was more than 60% or the value of IC50 was more than 200 nM.).

Question: How did the class turn out when `COc1ccc(NC(=S)NC[C@H]2CC[C@@H](Nc3nc(N(C)C)c4ccccc4n3)CC2)cc1OC` [compound 628] was run?
Answer: Its class is 3 (Class 3: The value of percent of control at 10^−7 M was more than 60% or the value of IC50 was more than 200 nM.).

Question: `CCc1ccc(NC(=S)NC[C@H]2CC[C@@H](Nc3nc(N(C)C)c4ccccc4n3)CC2)cc1` [compound 629] was tested. Which class did it give?
Answer: The class was 3 (Class 3: The value of percent of control at 10^−7 M was more than 60% or the value of IC50 was more than 200 nM.).

Question: With `CSc1ccccc1NC(=S)NC[C@H]1CC[C@@H](Nc2nc(N(C)C)c3ccccc3n2)CC1` [compound 630] as the compound, how does the class read?
Answer: The class was 3 (Class 3: The value of percent of control at 10^−7 M was more than 60% or the value of IC50 was more than 200 nM.).

Question: With `CN(C)c1nc(N[C@H]2CC[C@@H](CNC(=S)Nc3ccccc3OC(F)(F)F)CC2)nc2ccccc12` [compound 631] as the compound, how does the class read?
Answer: The class was 2 (Class 2: The value of percent of control at 10^−7 M was from 40% to 60% or the value of IC50 was from 50 nM to 200 nM.).

Question: `CN(C)c1nc(N[C@H]2CC[C@@H](CNC(=S)Nc3ccccc3C(F)(F)F)CC2)nc2ccccc12` [compound 632] was tested. Which class did it give?
Answer: The class was 3 (Class 3: The value of percent of control at 10^−7 M was more than 60% or the value of IC50 was more than 200 nM.).

Question: How did the class turn out when `CN(C)c1nc(N[C@H]2CC[C@@H](CNC(=S)Nc3ccc(F)c(F)c3F)CC2)nc2ccccc12` [compound 633, N-[(cis-4-{[4-(dimethylamino)quinazolin-2-yl]amino}cyclohexyl)methyl]-N′-(2,3,4-trifluorophenyl)thiourea] was run?
Answer: The class was 2 (Class 2: The value of percent of control at 10^−7 M was from 40% to 60% or the value of IC50 was from 50 nM to 200 nM.).

Question: For `CN(C)c1nc(N[C@H]2CC[C@@H](CNC(=S)Nc3cccc(Cl)c3Cl)CC2)nc2ccccc12` [compound 634], which class is on record?
Answer: The class was 3 (Class 3: The value of percent of control at 10^−7 M was more than 60% or the value of IC50 was more than 200 nM.).

Question: With `CN(C)c1nc(N[C@H]2CC[C@@H](CNC(=S)Nc3ccc(F)cc3F)CC2)nc2ccccc12` [compound 635] as the compound, how does the class read?
Answer: The class was 3 (Class 3: The value of percent of control at 10^−7 M was more than 60% or the value of IC50 was more than 200 nM.).

Question: `COc1ccc(OC)c(NC(=S)NC[C@H]2CC[C@@H](Nc3nc(N(C)C)c4ccccc4n3)CC2)c1` [compound 636] was tested. Which class did it give?
Answer: The class was 3 (Class 3: The value of percent of control at 10^−7 M was more than 60% or the value of IC50 was more than 200 nM.).

Question: `CN(C)c1nc(N[C@H]2CC[C@@H](CNC(=S)Nc3c(F)cccc3F)CC2)nc2ccccc12` [compound 637] was tested. Which class did it give?
Answer: Its class is 3 (Class 3: The value of percent of control at 10^−7 M was more than 60% or the value of IC50 was more than 200 nM.).

Question: With `CN(C)c1nc(N[C@H]2CC[C@@H](CNC(=S)Nc3ccc([N+](=O)[O-])cc3Cl)CC2)nc2ccccc12` [compound 638] as the compound, how does the class read?
Answer: Its class is 3 (Class 3: The value of percent of control at 10^−7 M was more than 60% or the value of IC50 was more than 200 nM.).

Question: Which class does the source give for `CN(C)c1nc(N[C@H]2CC[C@@H](CNC(=S)Nc3ccccc3OC(F)F)CC2)nc2ccccc12` [compound 639] here?
Answer: Its class is 3 (Class 3: The value of percent of control at 10^−7 M was more than 60% or the value of IC50 was more than 200 nM.).

Question: `CCc1ccccc1NC(=S)NC[C@H]1CC[C@@H](Nc2nc(N(C)C)c3ccccc3n2)CC1` [compound 640, N-[(cis-4-{[4-(dimethylamino)quinazolin-2-yl]amino}cyclohexyl)methyl]-N′-(2-ethylphenyl)thiourea] was tested. Which class did it give?
Answer: The class was 2 (Class 2: The value of percent of control at 10^−7 M was from 40% to 60% or the value of IC50 was from 50 nM to 200 nM.).

Question: With `CN(C)c1nc(N[C@H]2CC[C@@H](CNC(=S)Nc3cc(C(F)(F)F)ccc3F)CC2)nc2ccccc12` [compound 641] as the compound, how does the class read?
Answer: The class was 3 (Class 3: The value of percent of control at 10^−7 M was more than 60% or the value of IC50 was more than 200 nM.).

Question: Which class does the source give for `CN(C)c1nc(N[C@H]2CC[C@@H](CNC(=S)Nc3ccccc3F)CC2)nc2ccccc12` [compound 642] here?
Answer: Its class is 3 (Class 3: The value of percent of control at 10^−7 M was more than 60% or the value of IC50 was more than 200 nM.).
